Source: patent US20130034522A1, “THERAPIES FOR TREATING HEPATITIS C VIRUS INFECTION” (priority 2010, published 2013)
Values after ≈ are worked out from the molar mass of the structure shown.

Assays:
[1] = system: hepatitis C virus (HCV) replicon; test: HCV replicon cell assay; assay type: cell-based; conditions: HCV RNA level, 48-hour incubation
Procedure: Cells containing hepatitis C virus (HCV) replicon were maintained in DMEM containing 10% fetal bovine serum (FBS), 0.25 mg per ml of G418, with appropriate supplements (media A).
On day 1, replicon cell monolayer was treated with a trypsin:EDTA mixture, removed, and then media A was diluted into a final concentration of 100,000 cells per ml with 10,000 cells in 100 μl were plated into each well of a 96-well tissue culture plate, and cultured overnight in a tissue culture incubator at 37° C.
On day 2, compounds (in 100% DMSO) were serially diluted into DMEM containing 2% FBS, 0.5% DMSO, with appropriate supplements (media B). The final concentration of DMSO was maintained at 0.5% throughout the dilution series.
Media on the replicon cell monolayer was removed, and then media B containing various concentrations of compounds was added. […]
A Taqman real-time RT-PCR quantification assay was set up with two sets of specific primers and probe. […] Total RNA extractants from treated HCV replicon cells was added to the PCR reactions for quantification of both HCV and BVDV RNA in the same PCR well. […] The level of HCV RNA in each well was calculated according to a standard curve run in the same PCR plate. The percentage of inhibition or decrease of HCV RNA level due to compound treatment was calculated using the DMSO or no compound control as 0% of inhibition. […]

[2] = male, human, in vivo
Procedure: 25 healthy male volunteers were enrolled.
A dose escalation scheme was used that combined dose doubling and modified Fibonacci to be aggressive in the lower dose range and conservative in the higher dose range.
A pharmacokinetics analysis was performed using the statistical moment approach.

[3] = system: HCV; conditions: monotherapy, patients; cited from earlier work
[4] = PK of prodrugs of Compound 1 in rats; assay type: in vivo; conditions: oral gavage 3 mg/kg, plasma, FIG. 9
Procedure: The prodrugs whose PK parameters are to be determined can be formulated as a solution in 0.5% MC/0.5% Tween 80/99% water and administered orally by gavage to rats at a dose of 3 mg/kg. Rats are weighed the day before the study. Rat plasma is sampled predose and at 15, 30 min, 1, 2, 3, 4, 6, 8, 12 and 24 hrs post dose using Instech automatic blood sampling equipment. Blood is collected in tubes containing K2-EDTA and 110 uL plasma are extracted for analysis. Rats are fed ad lib and standard IACUC and SOP protocols are followed. Plasma samples and dose samples are analyzed using LC/MS/MS for both the prodrug compound and the active metabolite. PK parameters for both analytes for each subject are calculated using the measured dose of prodrug.

CCC[C@H](NC(=O)[C@@H]1[C@H]2CCC[C@H]2CN1C(=O)[C@@H](NC(=O)[C@@H](NC(=O)c1cnccn1)C1CCCCC1)C(C)(C)C)C(=O)C(=O)NC1CC1 [VX-950]
IC50 [1]: 0.24 µg/mL (≈ 0.353 µM) | IC90 [1]: 0.476 µg/mL (≈ 0.7 µM) | eliminated unchanged in the urine [2]: Less than 2%

interferon alfa
long term remission, fraction of cases [3]: ~25%

C[C@@H](N)C(=O)O[C@H]1CC[C@H](N(c2cc(C#CC(C)(C)C)sc2C(=O)O)C(=O)[C@H]2CC[C@H](C)CC2)CC1 [Compound H]
in vivo conversion of prodrug [4]: converted into the —OH active metabolite
